1 molecule from patent US20060106102A1, “Napththalene derivatives which inhibit the cytokine or biological activity of microphage migration inhibitory factor (mif)” (priority 2002, published 2006) can be followed below.

Data set [1] concerns IL-1-induced COX-2 expression. Put plainly: IL-1-induced COX-2 expression in S112 human dermal fibroblasts (MIF-dependent event), flow cytometry. The data set is classed as cell-based. The settings on record: Homo sapiens, Fibroblast; compound 1 uM; IL-1 0.1 ng/ml, 6 hours; S112 cells; read-out: % inhibition of IL-1-induced COX2 expression (Effect). The protocol: The activity of each compound was studied in a bioassay utilising MIF-dependent activation of human dermal fibroblasts. […] IL-1-induced COX-2 expression is therefore a MIF-dependent event. […] Prior to experimentation, cells were seeded at 10^5 cells/ml in RPMI/0.1% BSA for 18 hours. […] Cells permeabilised with 0.1% saponin were sequentially labelled with a mouse anti-human COX-2 monoclonal antibody and with sheep-anti-mouse F(ab)2 fragment labelled with fluoroscein isothiocyanate. Cellular fluorescence was determined using a flow cytometer. At least 5000 events were counted for each reading, each of which was performed in duplicate, and the results expressed in mean fluorescence intensity (MFI) after subtraction of negative control-labelled cell fluorescence. The effect of each compound was determined by subtracting the IL-1+compound-treated cell MFI from the IL-1-treated cell MFI and expressed as % inhibition. In each case the % inhibition of IL-1-induced COX2 expression is shown as the mean, or mean±SEM where results are available from multiple experiments.

Data set [2] relates to ex vivo splenic T cell proliferation. Description: ex vivo antigen-specific splenic T cell proliferation after in vivo treatment. The settings on record: [mBSA] 10 ug/mL; cells from compound-treated versus vehicle-treated mice. An excerpt:
In vivo administration of such a compound might be expected to exert effects on T cell responsiveness even after the T cells have been removed from exposure to the compound, that is, if T cells were studied ex vivo after in vivo treatment with the MIF antagonist compound. To measure ex vivo antigen-specific T cell activation, spleens were removed from mice with murine antigen induced arthritis, induced as above with mBSA, at day 28 after first immunisation and a single cell suspension prepared in DMEM containing 5% FCS and 0.05% 2-mercaptoethanol. 1×10^5 cells /200 μl were cultured in triplicate in the presence or absence of mBSA (0.1, 1.0, 10 μg /ml) in 96-well plates for 48 hours (37° C., 5% CO2) The T cell proliferation response was determined by measuring ^3H-thymidine incorporation during the final 18 hr. The cells were harvested and radioactivity incorporation into the DNA was measured with a Wallac 1409 liquid scintillation counter. The means of each triplicate culture were calculated. Each experiment comprised at least three individual animals and the results presented represent the mean±SEM of groups of animals in each experiment. The percentage inhibition of T cell proliferation was calculated using the result of the ^3H-thymidine incorporation of cells from compound-treated animals divided by the ^3H-thymidine incorporation of cells from vehicle-treated animals.

Data set [3] deals with antigen-specific T cell activation (splenic T lymphocytes from mBSA-immunised mice). Description: antigen-specific (mBSA) activation of splenic T lymphocytes in vitro, 3H-thymidine incorporation. Format: cell-based, C57BL6/J mice. As to conditions: Mus musculus, T-cell, read-out: EC50 (T cell activation suppressed by 50% compared to vehicle-only-treated cells). On the procedure: After a further seven (7) days mice were killed and spleens collected aseptically into Hanks buffered saline solution (HBSS). A single cell suspension was prepared in Petri dishes by flushing DMEM through the organ using a 26G needle and 2 mL syringe. The resulting cell suspension was centrifuged for 5-7 minutes and supernatant discarded. Erythrocytes were lysed using a solution containing 0.579% NH4Cl, 0.000037% EDTA, and 0.1% NaHCO3 in a 37° C. water bath. Tubes were then filled with DMEM and centrifuged for 5-7 minutes. […] The specific stimulating antigen, mBSA, was then added at 10-50 μg/mL and plates incubated for 30 hours in a 37° C., 5% CO2 incubator. Tritiated^3H-thymidine was then added at a concentration of 0.5 μCi/well for a further 18 hours. Cells were harvested on a Packard cell harvester, and the harvested material added to 750 μL/tube scintillation fluid. Scintillation counts were read on a Wallac beta-emnission counter. […] Further compounds were also tested for their ability to inhibit antigen-specific T cell activation as a marker of the inhibition of the cytokine or biological activity of MIF using this assay.
(In general: Incorporation of labelled thymidine or its analogues reports DNA synthesis.)

Data set [4] has as its system recombinant human macrophage migration inhibitory factor (MIF)-induced proliferation of S112 human dermal fibroblasts. Put plainly: MIF-induced proliferation of S112 human dermal fibroblasts, 3H-thymidine incorporation. Format: cell-based. On the procedure: The activity of each compound was studied in a bioassay utilising MIF-induced proliferation of human dermal fibroblasts. S112 human dermal fibroblasts were propagated in RPMI/10% foetal calf serum (FCS). Prior to experimentation, cells were seeded at 10^5 cells/ml in RPMI/0.1% BSA for 18 hours. At time point zero, culture medium was replaced with RPMI/10% FCS and treatments administered. Cells were treated with recombinant human macrophage migration inhibitory factor (MIF) 50 ng/ml (1.353×10^−9 M) and/or the compound at a 1 or 1000 molar ratio to the concentration of MIF. In some experiments the compound was combined with MIF at time point −30 minutes, prior to adding at time point zero. At time point 30 hours, cells were pulsed with […]. At time point 48 hours, cells were harvested using a semi-automated cell harvester. The radioactivity incorporated into DNA was determined by liquid scintillation counting, with results expressed as [^3H] thymidine incorporation. The proliferation of untreated cells was expressed as 100% and the effect of MIF and each compound expressed in relative %.
The activity of compound 5 was studied in a bioassay utilising MIF-induced proliferation of human dermal fibroblasts. S112 human dermal fibroblasts were propagated in RPMI/10% foetal calf serum (FCS). Prior to experimentation, cells were seeded at 10^5 cells/ml in RPMII/0.1% BSA for 18 hours. At time point zero, culture medium was replaced with RPMI/10% FCS and treatments administered. Cells were treated with recombinant human macrophage migration inhibitory factor (MIF) 50 ng/ml and/or compound 5 at a 1-1000 molar ratio to the concentration of MIF. At a time point 30 hours later, cells were pulsed with 1 μCi/well of ^3H-thymidine. At a time point 48 hours after commencement of the experiment, cells were harvested using a semi-automated cell harvester. The radioactivity incorporated into DNA was determined by liquid scintillation counting, with results expressed as [^3H] thymidine incorporation.

Where two headings read alike, the source gives them in different places.

As for `COc1cc2ccc(C(=O)O)cc2cc1OC` [Compound 4, 6,7-dimethoxy-2-naphthanoic acid], the melting point lay in the range of 248 to 250 °C. The inhibition at 1 µM in data set [1] was determined as 2.7%. Moreover, the “% inhibition of ex vivo splenic T cell proliferation” value in data set [2] is given as 18%. In addition, the concentration for a half-maximal effect (EC50) in data set [3] (mBSA 10 μg/ml) came out at 14.8 µM. In addition, in data set [3] (mBSA 50 μg/ml), the EC50 was 49.5 µM. Also, the “effect on MIF-induced proliferation of human dermal fibroblasts (FIGS. 1 and 2)” value in data set [4] (1M ratio equivalent to MIF 50 ng/ml) is reported as “inhibition of MIF-induced proliferation”. Moreover, in data set [4] (Homo sapiens, Fibroblast, concentration 0.013 μM, rhMIF 50 ng/ml, S112 cells, read-out: % inhibition of proliferation compared to vehicle plus rhMIF-treated cells), the inhibition at 0.013 µM was 24%.

As a reminder, the EC50 is the concentration needed to bring the measured effect to its halfway point. Usually melting point stands for the temperature of the solid-liquid transition.
